The source of these data is patent US9758472B2, “Non-lactone carbocyclic and heterocyclic antagonists and agonists of bacterial quorum sensing” (WISCONSIN ALUMNI RESEARCH FOUNDATION, priority 2009, dated 2017).

The target of test [1] is T1, LasR (Pseudomonas aeruginosa, UniProt P25084).
T1 construct: expressed in transfected cells; host or cells: Escherichia coli DH5α (pJN105L+pSC11)
Put plainly: LasR agonism assay, E. coli DH5α (pJN105L+pSC11) β-galactosidase reporter strain. The conditions noted are these: for Act %: thiolactone libraries, E. coli, synthetic ligands tested at 10 μM; for Agonist, percent of activation compared to the positive control: initial library (FIG. 4); for Agonist, percent of activation compared to the positive control / LasR agonism, in words / EC50: E. coli DH5α (pJN105L+pSC11); for EC50: dose response. The test is classed as cell-based, P. aeruginosa. As for the experimental part: (§1) The black bars are DH5α (pJN105L+pSC11) and the grey bars are PA01 MW1 (pUM15). Agonism positive control=activity of the reporter strain at full turn on for the strain. […] Negative control (Neg)=bacteria in the absence of natural and synthetic ligand. Error bars=standard deviation of the mean of triplicate samples.
(§2) The initial library was tested for LasR agonistic and antagonistic activity in two strains: Escherichia coli DH5α (pJN105L+pSC11) [Lee, J. H.; Lequette, Y.; Greenberg, E. P., Activity of purified QscR, a Pseudomonas aeruginosa orphan quorum-sensing transcription factor. Mol. Microbiol. 2006, 59 (2), 602-609] and P. aeruginosa PA01 MW1 (pUM15) [Muh, U.; Schuster, M.; Heim, R.; Singh, A.; Olson, E.; Greenberg, E. P., Novel Pseudomonas aeruginosa Quorum-Sensing Inhibitors Identified in an Ultra-High-Throughput Screen. Antimicrob. Agents Chemother. 2006, 50, 3674-3679] (FIGS. 5A and 5B). Both strains allow for synthetic autoinducer mimic evaluation and contain a reporter gene that allows for a quantitative readout of QS activity. DH5α (pJN105L+pSC11) is a heterologous β-galactosidase E. coli reporter strain containing a plasmid for the P. aeruginosa LasR gene. The PA01 MW1 (pUM15) strain uses the natural P. aeruginosa background containing a LasI deletion and the gene for yellow fluorescent protein (YFP) under the control of the LasI promoter to evaluate the LasI/R activity. Since the PA01 MW1 (pUM15) strain evaluates LasR in the natural P. aeruginosa background, in contrast to the heterologous E. coli strain, an improved idea of the interplay between the isolated LasI/R system and the combination of LasI/R with other QS subsystems such as QscR can be determined. Furthermore, additional nuances of the natural system such as compound permeability are incorporated in assays using the PA01 MW1 (pUM15) strain.

Another test addresses TraR (Agrobacterium tumefaciens, UniProt P33905). Put plainly: cell-based. The format is cell-based. On the set-up: and Agrobacterium tumefaciens WCF (pCF372); endogenous in cells; host or cells: Agrobacterium tumefaciens WCF (pCF372). The conditions noted are these: for Inhib %: thiolactone libraries, A. tumefaciens, synthetic ligands tested at 10 μM; for IC50: dose response. The method, then:
(§3) The initial library was also tested in Vibrio fischeri ESI 114 (Δ-LuxI) [Lupp, C.; Urbanowski, M.; Greenberg, E. P.; Ruby, E. G., The Vibrio fischeri quorum-sensing systems ain and lux sequentially induce luminescence gene expression and are important for persistence in the squid host. Mol. Microbiol. 2003, 50 (1), 319-331] and Agrobacterium tumefaciens WCF (pCF372). […] J. Bacteriol. 1998, 180 (20), 5398-5405.] […] [Geske, G. D.; O'Neill, J. C.; Miller, D. M.; Mattmann, M. E.; Blackwell, H. E., Modulation of Bacterial Quorum Sensing: Systematic Evaluation of N-Acylated Homoserine Lactones in Multiple Species and New Insights into Their Mechanism of Action. J. Am. Chem. Soc. 2007, 129, 13613-13625.]

Test [2] deals with T1, LasR. Put plainly: LasR antagonism assay, E. coli DH5α (pJN105L+pSC11) β-galactosidase reporter strain. The test is classed as cell-based, P. aeruginosa. The conditions noted are these: thiolactone libraries, synthetic ligands tested at 10 μM.
In another test the target is LuxR (Aliivibrio fischeri, UniProt P35327). Put plainly: cell-based. The settings on record: for Inhib %: thiolactone libraries, V. fischeri, synthetic ligands tested at 10 μM; for Antagonism, in words: V. fischeri strain; for Antagonist, percent inhibition compared to a positive control: initial library (FIG. 4); for Antagonist, percent inhibition compared to a positive control / IC50: V. fischeri ESI 114 (Δ-LuxI); for IC50: dose response. The arrangement: The initial library was also tested in Vibrio fischeri ESI 114 (Δ-LuxI); endogenous in cells; host or cells: Vibrio fischeri ESI 114 (Δ-LuxI). The test is classed as cell-based, Vibrio fischeri. The method, then:
as §3

The target in test [3] is T1, LasR. Kind of test: LasR agonism assay, P. aeruginosa PA01 MW1 (pUM15) YFP reporter strain. The format is cell-based. The settings on record: for Act %: thiolactone libraries, P. aeruginosa, synthetic ligands tested at 10 μM; for Agonist, percent of activation compared to the positive control: initial library (FIG. 4), P. aeruginosa PA01 MW1; for EC50: dose response. The method, then: as §1, §2

The target of test [4] is T1, LasR. Kind of test: LasR antagonism assay, E. coli DH5α (pJN105L+pSC11) β-galactosidase reporter strain. The settings on record: dose response; E. coli DH5α (pJN105L+pSC11). The test is classed as cell-based, P. aeruginosa. As for the experimental part:
FIG. 5B is a bar graph showing the results of […] assay for initial heterocyclic and carbocyclic library (Scheme 1) shown as a percent of the positive control. Antagonism positive control (Pos)=activity of the reporter strain in the absence of synthetic ligand at the EC50 value for the strain. […] Negative control (Neg)=bacteria in the absence of natural and synthetic ligand. Error bars=standard deviation of the mean of triplicate samples.
as §2

T1 sequence (P25084 whole entry): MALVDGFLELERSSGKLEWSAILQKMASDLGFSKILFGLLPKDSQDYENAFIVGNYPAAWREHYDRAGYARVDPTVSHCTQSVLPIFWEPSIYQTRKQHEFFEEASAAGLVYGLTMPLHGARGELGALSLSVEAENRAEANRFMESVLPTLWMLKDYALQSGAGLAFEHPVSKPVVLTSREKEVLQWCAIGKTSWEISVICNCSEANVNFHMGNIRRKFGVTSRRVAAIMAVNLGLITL
TraR, sequence (P33905 whole entry): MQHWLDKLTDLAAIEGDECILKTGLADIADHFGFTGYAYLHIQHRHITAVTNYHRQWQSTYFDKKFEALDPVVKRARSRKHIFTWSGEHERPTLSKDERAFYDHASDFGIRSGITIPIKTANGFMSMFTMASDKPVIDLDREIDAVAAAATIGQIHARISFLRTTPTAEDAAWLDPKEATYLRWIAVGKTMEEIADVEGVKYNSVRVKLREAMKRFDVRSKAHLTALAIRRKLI
LuxR, sequence (P35327 whole entry): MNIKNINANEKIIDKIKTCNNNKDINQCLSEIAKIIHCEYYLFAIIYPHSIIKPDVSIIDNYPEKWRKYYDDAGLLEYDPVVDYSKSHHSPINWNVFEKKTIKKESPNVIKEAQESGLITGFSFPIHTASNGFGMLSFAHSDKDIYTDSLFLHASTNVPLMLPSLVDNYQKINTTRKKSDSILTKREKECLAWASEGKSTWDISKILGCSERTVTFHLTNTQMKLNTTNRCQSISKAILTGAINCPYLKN

On to `O=C(Cc1ccc(Br)cc1)NC1CCSC1=O` (racemic) [Compound 18], for which the Act % on LasR [1] is 2%; at LasR [3] it was 8%. Moreover, the Inhib % on TraR was −60%; at LasR [2], 80%; at LuxR, 97%.

On to `O=C(Cc1cccc([N+](=O)[O-])c1)NC1CCSC1=O` (racemic) [Compound 19], for which the results for the Act % on LasR [1] and at LasR [3] were 82% and 5%, respectively. In addition, the Inhib % at TraR was 33%; at LasR [2], −13%; at LuxR, 19%.

`COc1ccc(CC(=O)NC2CCSC2=O)cc1` (racemic) [Compound 20]: the Act % was found to be 1% at LasR [1] and 7% at LasR [3]. For the same molecule, the figures for the Inhib % at TraR, at LasR [2] and at LuxR were −107%, 51% and 70%, respectively.

In the case of `O=C(Cc1ccccc1)NC1CCSC1=O` (racemic) [Compound 21], the Act % at LasR [1] and at LasR [3] was 2% throughout. Also, the Inhib % at TraR was −22%; on LasR [2], 65%; at LuxR, 34%.

With `O=C(CCc1c[nH]c2ccccc12)NC1CCSC1=O` (racemic) [Compound 22], the results for the Act % on LasR [1] and on LasR [3] were 4% and 10%, respectively. In addition, the Inhib % at TraR is given as −80%; at LasR [2] it was 16%; on LuxR, 68%.

For the molecule `O=C(Cc1ccc(-c2ccccc2)cc1)NC1CCSC1=O` (racemic) [Compound 23], the Act % is on record as 9% on LasR [1] and 3% at LasR [3]. Moreover, the Inhib % on TraR came to 9%; at LasR [2], 56%; at LuxR, 98%.

As to `CCCCCCCCCC(=O)CC(=O)NC1CCSC1=O` (stereo not shown) [Compound 1], the entries for the “Agonist, percent of activation compared to the positive control” value (“Agonist, percent of activation” below) at LasR [1] and at LasR [3] were 94% and 88%, respectively. The Act % on LasR [1] was 94%; on LasR [3] it was 88%. Besides, the “Antagonism, in words” value at TraR (A. tumefaciens strain) and at LuxR was “good antagonist” throughout. The “Antagonist, percent inhibition compared to a positive control” value at TraR (initial library (FIG. 4), A. tumefaciens WCF (pCF372), negative values indicate agonist properties) is 65%; on LuxR, 92%. The Inhib % at TraR is 92%; at LasR [2] it was −40%; at LuxR, 99%.

For `CCCCCCCCCC(=O)CC(=O)NC1CCCC1` [Compound 3], at LasR [1], the “LasR agonism, in words” value is recorded as “agonist” and the “Agonist, percent of activation” value was 83.5%. Besides, on LuxR, the “Antagonism, in words” value was “modest antagonist” and the “Antagonist, percent inhibition compared to a positive control” value turned out to be 89.4%. Also, on LasR [3] (P. aeruginosa PA01 MW1 (pUM15), natural background), the “LasR agonism, in words” value was “agonist”. Also, the “Agonist, percent of activation” value on LasR [3] came to 54.2%.

As a reminder, the IC50 is the midpoint of a concentration-inhibition curve. For the molecule `O=C(Cc1ccc(Br)cc1)N[C@H]1CCSC1=O` [Compound 18E], the Act % on LasR [1] was determined as 8%; at LasR [3] it was 5%. The Inhib % at TraR amounted to 25%; at LasR [2] it was 68%; on LuxR, 91%. Moreover, the values for the IC50 at LuxR and on LasR [4] were 0.77 µM and 0.4 µM, respectively.

`COc1ccc(CC(=O)N[C@H]2CCSC2=O)cc1` [Compound 20E]: the Act % at LasR [1] is 0%; at LasR [3] it was 4%. Besides, the Inhib % at TraR is −24%; at LasR [2], 48%; on LuxR, 59%. For the same molecule, at LasR [4], the IC50 turned out to be 7.2 µM.

For `O=C(Cc1ccccc1)N[C@H]1CCSC1=O` [Compound 21E], the Act % on LasR [1] stood at 3%; at LasR [3], 17%. For the same molecule, the figures for the Inhib % at TraR, at LasR [2] and on LuxR were 13%, 61% and 30%, respectively. For the same molecule, at LasR [4], the IC50 was found to be 2.5 µM.

Consider `O=C(Cc1ccc(-c2ccccc2)cc1)N[C@H]1CCSC1=O` [Compound 23E], for which the Act % on LasR [1] is 0%; at LasR [3], 1%. Besides, the values for the Inhib % on TraR, on LasR [2] and on LuxR were 26%, 45% and 85%, respectively. In addition, the concentration for half-maximal inhibition (IC50) against LuxR worked out at 0.35 µM; on LasR [4], 2.9 µM.

A word on the EC50: it is the concentration giving half of the maximal effect. For `CCCCCCCCCCCC(=O)N[C@H]1CCSC1=O` [Compound 25E], the “LasR agonism, in words” value on LasR [1] was “strong agonists”. Moreover, the EC50 stood at 1.9 µM on LasR [1] and 21 µM on LasR [3] (P. aeruginosa PA01 MW1 (pUM15)). Moreover, the Act % was 4% at LasR [1] and 42% on LasR [3]. For the same molecule, the Inhib % on TraR is given as 6%; at LasR [2], −93%; at LuxR, 57%.

In the case of `CCCCCCCC(=O)N[C@H]1CCSC1=O` [Compound 26E], the Act % at LasR [1] was determined as 85%; at LasR [3], 0%. Besides, the half-maximal inhibitory concentration (IC50) against TraR (A. tumefaciens WCF (pCF372)) amounted to 2.8 µM; against LuxR, 0.13 µM; on LasR [4], 0.14 µM. Besides, the Inhib % at TraR stood at 99%; at LasR [2], 64%; at LuxR, 80%.

Consider `CCCCCCC(=O)N[C@H]1CCSC1=O` [Compound 27E], for which the values for the Act % at LasR [1] and at LasR [3] were 8% and 0%, respectively. Also, the IC50 was determined as 10 µM on TraR (A. tumefaciens WCF (pCF372)), 0.31 µM at LuxR and 0.79 µM on LasR [4]. For the same molecule, the Inhib % on TraR, at LasR [2] and at LuxR was 78% each time.

In the case of `CCCCCC(=O)N[C@H]1CCSC1=O` [Compound 28E], the Act % at LasR [1] was found to be 1%; on LasR [3], 20%. For the same molecule, the Inhib % was −78% at TraR, 59% on LasR [2] and 93% at LuxR. The IC50 on LuxR stood at 0.84 µM; on LasR [4], 1.1 µM.

Consider `CCCC(=O)N[C@H]1CCSC1=O` [Compound 29E], for which the Act % on LasR [1] is on record as 4%; at LasR [3], 22%. The figures for the Inhib % at TraR, on LasR [2] and on LuxR were −70%, 17% and 42%, respectively.

For the molecule `CCCC(=O)CC(=O)N[C@H]1CCSC1=O` [Compound 30E], the figures for the EC50 on LasR [1] and at LasR [3] (P. aeruginosa PA01 MW1 (pUM15)) were 0.13 µM and 13 µM, respectively. Also, the Act % is 6% at LasR [1] and 76% on LasR [3]. At TraR (A. tumefaciens WCF (pCF372)), the IC50 turned out to be 3.2 µM. Further, the values for the Inhib % on TraR, at LasR [2] and on LuxR were 93%, −119% and 62%, respectively.

Consider `CCOC(=O)CNC(=O)CCc1cccc(I)c1` [Compound 34], for which the “Antagonism, in words” value at LuxR is “excellent antagonistic activity”.
